From US20240317689A1, “POTASSIUM CHANNEL MODULATOR, COMPOSITION AND APPLICATION” (NEUSHEN THERAPEUTICS (SHANGHAI) CO., LTD, priority 2021, published 2024)

Target: T1, KCNQ2/3 potassium ion channel (Homo sapiens, UniProt O43525+O43526)
T1 construct: expressed in transfected cells; host or cells: CHO cells (hKCNQ-CHO)
Test: KCNQ2/3 potassium ion channel activation assay (whole-cell patch clamp, hKCNQ-CHO cells)
Assay type: cell-based
Details: read-out: Enhancment % (current enhancement multiple); for activation at 0.05 µM: test concentration 0.05 μM; for activation at 3 µM: test concentration 3 μM
Procedure: Example 64: KCNQ2/3 Potassium Ion Channel Activation Assay
hKCNQ-CHO cells were cultured at 37° C. in a humidified environment of 5% CO2.
• 2.1. Extracellular fluid (mM): NaCl 145, KCl 4, CaCl2 2, MgCl2 1, Glucose 10, HEPES 10. The pH value of the extracellular fluid was adjusted to 7.4 with NaOH, and the osmotic pressure was adjusted to about 295 mOsm. • 2.2. Intracellular fluid (mM (mmol/L)): KOH 31.25, KCl 120, EGTA 10, MgCl2 1.75, CaCl2 5.374, HEPES 10, Na-ATP 4. The pH value of the intracellular fluid was adjusted to 7.4 with HCl, and the osmotic pressure was adjusted to about 285 mOsm. • 2.3. The extracellular fluid should be prepared once a week, and the intracellular fluid should be stored at −20° C. after preparation.
The model positive reference compound Retigabine (RTG) was dissolved with 100% DMSO and configured as a 10 mM working solution. The test compounds were dissolved with 100% DMSO and configured as a 10 mM working solution. The final concentration of DMSO in the test solution should be less than 0.3%.
Whole-cell patch clamp was performed at room temperature. The electrical signals recorded with the EPC 10 USB amplifier (HEKA Elektronik, Germany) were filtered by a 3 kHz low-pass filter, and finally recorded in PatchMaster 2×90.5 software (HEKA Elektronik, Germany). At this step, the quality control standard was that the cell high-resistance sealing was greater than 500 MOhms, and the detection current was greater than 0.4 nA.
The recording electrodes were pulled out and polished with a vertical puller (NARISHIGE PC-10, Japan) using a borosilicate glass capillary (GC150tF-10, Harvard Apparatus Co., UK). At this step, the quality control standard was that the electrode resistance was between 2 MΩ and 5 MΩ.
During the recording process of the whole-cell patch clamp, a continuous perfusion system (BT100-2J, LongerPump, China) was used to continuously perfuse the extracellular fluid. The perfusion system was installed on the stage of an upright microscope (FN-S2N, Nikon, Japan), and the perfusion head was manually positioned under the microscope.
The voltage command for detecting the amplitude of hKCNQ current was as follows: the cell stepped from the clamping potential of −80 mV to −30 mV, and held for 1500 ms; and then the clamping voltage was lowered to −120 my and held for 500 ms; finally, the voltage returned to the clamping potential of −80 mV. The detection voltage command was repeated every 15,000 milliseconds, and the command was continuously executed during the compound test. The quality control standard for compound action stability was the current amplitude under 5 consecutive voltage commands, and the coefficient of variation of the current amplitude was <5%.
Data analysis was performed using PatchMaster 2×90.5 software (HEKA Elektronik, Germany) and Excel 2013 (Microsoft, USA) software. For each cell's patch clamp recording, the amplitude of the hKCNQ channel current (Itest) corresponding to the test compound concentration should be obtained. The enhanced channel current was obtained by subtracting the cell's original channel current (Icontrol) from Itest and dividing by Icontrol to obtain the current enhancement multiple. That is, the current enhancement multiple (Enhancment %)=(Itest −Icontrol)/Icontrol[…].

COc1ccc2c(c1)CCCN(c1cc(C)c(NC(=O)CC(C)(C)C)c(C)c1)C2 [Compound 001, N-(4-(7-methoxy-1,3,4,5-tetrahydro-2H-benzo[c]azepin-2-yl)-2,6-dimethylphenyl)-3,3-dimethylbutanamide]
activation at 0.05 µM: 50 to 100% | activation at 3 µM: 50 to 100%

CCOc1ccc2c(c1)CCCN(c1cc(C)c(NC(=O)CC(C)(C)C)c(C)c1)C2 [Compound 002, N-(4-(7-ethoxy-1,3,4,5-tetrahydro-2H-benzo[c]azepin-2-yl)-2,6-dimethylphenyl)-3,3-dimethylbutanamide]
activation at 0.05 µM: < 50% | activation at 3 µM: 50 to 100%

Cc1cc(N2CCCc3cc(OC(F)F)ccc3C2)cc(C)c1NC(=O)CC(C)(C)C [Compound 005, N-(4-(7-(difluoromethoxy)-1,3,4,5-tetrahydro-2H-benzo[c]azepin-2-yl)-2,6-dimethylphenyl)-3,3-dimethylbutanamide]
activation at 0.05 µM: < 50% | activation at 3 µM: > 100%

Cc1cc(N2CCCc3cc(OC(F)(F)F)ccc3C2)cc(C)c1NC(=O)CC(C)(C)C [Compound 006, N-(2,6-dimethyl-4-(7-(trifluoromethoxy)-1,3,4,5-tetrahydro-2H-benzo[c]azepin-2-yl)phenyl)-3,3-dimethylbutanamide]
activation at 3 µM: > 100%

Cc1cc(N2CCCc3cc(OCC(F)(F)F)ccc3C2)cc(C)c1NC(=O)CC(C)(C)C [Compound 007, N-(2,6-dimethyl-4-(7-(2,2,2-trifluoroethoxy)-1,3,4,5-tetrahydro-2H-benzo[c]azepin-2-yl)phenyl)-3,3-dimethylbutanamide]
activation at 3 µM: > 100%

Cc1cc(N2CCCc3cc(OC4CC4)ccc3C2)cc(C)c1NC(=O)CC(C)(C)C [Compound 009, N-(4-(7-cyclopropoxy-1,3,4,5-tetrahydro-2H-benzo[c]azepin-2-yl)-2,6-dimethylphenyl)-3,3-dimethylbutanamide]
activation at 3 µM: > 100%

Cc1cc(N2CCCc3cc(OC4CCC4)ccc3C2)cc(C)c1NC(=O)CC(C)(C)C [Compound 010, N-(4-(7-cyclobutoxy-1,3,4,5-tetrahydro-2H-benzo[c]azepin-2-yl)-2,6-dimethylphenyl)-3,3-dimethylbutanamide]
activation at 0.05 µM: > 100% | activation at 3 µM: > 100%

Cc1cc(N2CCCc3cc(OC4CCCCC4)ccc3C2)cc(C)c1NC(=O)CC(C)(C)C [Compound 012, N-(4-(7-(cyclohexyloxy)-1,3,4,5-tetrahydro-2H-benzo[c]azepin-2-yl)-2,6-dimethylphenyl)-3,3-dimethylbutanamide]
activation at 3 µM: > 100%

Cc1cc(N2CCCc3cc(OC4COC4)ccc3C2)cc(C)c1NC(=O)CC(C)(C)C [Compound 013, N-(2,6-dimethyl-4-(7-(oxetan-3-yloxy)-1,3,4,5-tetrahydro-2H-benzo[c]azepin-2-yl)phenyl)-3,3-dimethylbutanamide]
activation at 3 µM: > 100%

CSc1ccc2c(c1)CCCN(c1cc(C)c(NC(=O)CC(C)(C)C)c(C)c1)C2 [Compound 014, N-(2,6-dimethyl-4-(7-(methylthio)-1,3,4,5-tetrahydro-2H-benzo[c]azepin-2-yl)phenyl)-3,3-dimethylbutanamide]
activation at 0.05 µM: < 50% | activation at 3 µM: 50 to 100%

Cc1cc(N2CCCc3cc(S(C)(=O)=O)ccc3C2)cc(C)c1NC(=O)CC(C)(C)C [Compound 015, N-(2,6-dimethyl-4-(7-(methylsulfonyl)-1,3,4,5-tetrahydro-2H-benzo[c]azepin-2-yl)phenyl)-3,3-dimethylbutanamide]
activation at 3 µM: > 100%

Cc1cc(N2CCC(C)(C)c3ccccc3C2)cc(C)c1NC(=O)CC(C)(C)C [Compound 017, N-(4-(5,5-dimethyl-1,3,4,5-tetrahydro-2H-benzo[c]azepin-2-yl)-2,6-dimethylphenyl)-3,3-dimethylbutanamide]
activation at 0.05 µM: < 50% | activation at 3 µM: 50 to 100%

Cc1cc(N2CCC3(CC3)c3cc(F)ccc3C2)cc(C)c1NC(=O)CC(C)(C)C [Compound 022, N-(4-(7-fluoro-3,4-dihydrospiro[benzo[c]azepine-5,1′-cyclopropan]-2(1H)-yl)-2,6-dimethylphenyl)-3,3-dimethylbutanamide]
activation at 3 µM: 50 to 100%
